Data taken from patent US9790169B2, “IDO inhibitors” (BRISTOL-MYERS SQUIBB COMPANY, priority 2015, dated 2017).

These compounds were tested against human IDO1 (Homo sapiens, UniProt P14902) (assay: Assessment of human IDO-1 inhibitory activity in HEK cells (human IDO1/HEK293 cells, kynurenine read-out with Ehrlich reagent, absorbance 490 nm)). Details: HEK Human IDO-1 cellular assay.
Type: cell-based
Design: expressed in transfected cells
Summary of the method: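 HEK293 cells stably expressing human IDO1 were seeded at 10,000 per well in phenol red-free RPMI with 10% FBS, treated with compound for 20 h at 37 °C. Kynurenine was measured after TCA (0.2% final) and 30 min at 50 °C, using Ehrlich reagent, A490. IC50 normalised to DMSO (0%) and 500 nM reference standard (100%).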

human IDO1, sequence (P14902 whole entry): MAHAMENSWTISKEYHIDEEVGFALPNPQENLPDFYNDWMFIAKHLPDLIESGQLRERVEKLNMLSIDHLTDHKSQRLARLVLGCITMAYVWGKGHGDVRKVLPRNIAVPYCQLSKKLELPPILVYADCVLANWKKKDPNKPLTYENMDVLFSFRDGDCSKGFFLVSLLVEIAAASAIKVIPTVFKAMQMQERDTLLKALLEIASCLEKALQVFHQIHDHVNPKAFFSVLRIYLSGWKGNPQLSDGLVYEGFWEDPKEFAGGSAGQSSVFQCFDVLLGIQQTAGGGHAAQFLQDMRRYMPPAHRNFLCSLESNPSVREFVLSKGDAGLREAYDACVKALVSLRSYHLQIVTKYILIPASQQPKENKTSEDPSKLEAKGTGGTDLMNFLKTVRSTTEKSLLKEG

SMILES	IC50 [nM]
CCN(c1ccc(C(C)CC(=O)O)cc1Nc1cnc(C)nc1)C1CCOCC1 (single isomer, unassigned) [Example 636, 3-(4-(ethyl(tetrahydro-2H-pyran-4-yl)amino)-3-((2-methylpyrimidin-5-yl)amino)phenyl)butanoic acid]	> 50
CCN(c1ccc(C(C)CC(=O)O)cc1NC(=O)Nc1ccccc1F)C1CCOCC1 (single isomer, unassigned) [Example 640, 3-(4-(ethyl(tetrahydro-2H-pyran-4-yl)amino)-3-(3-(2-fluorophenyl)ureido)phenyl) butanoic acid]	> 50
CCN(c1ccc(C(C)CC(=O)O)cc1NC(=O)Nc1ccc(C)cc1)C1CCOCC1 (single isomer, unassigned) [Example 641, 3-(4-(ethyl(tetrahydro-2H-pyran-4-yl)amino)-3-(3-(p-tolyl)ureido)phenyl)butanoic acid]	> 50
CCC(CC(=O)O)c1ccc(N(CC(C)C)C2CCCCC2)c(Nc2ccc(Cl)c(OCC(F)(F)F)c2)c1 (single isomer, unassigned) [Example 644, 3-(3-((4-chloro-3-(2,2,2-trifluoroethoxy)phenyl)amino)-4-(cyclohexyl (isobutyl)amino)phenyl) pentanoic acid]	< 50
CCC(CC(=O)O)c1ccc(N(CC(C)C)C2CCCCC2)c(Nc2ccc(Cl)c(OCC3CC3)c2)c1 (single isomer, unassigned) [Example 645, 3-(3-((4-chloro-3-(cyclopropylmethoxy)phenyl)amino)-4-(cyclohexyl (isobutyl)amino)phenyl) pentanoic acid]	< 50
CCC(CC(=O)O)c1ccc(N(CC(C)C)C2CCCCC2)c(Nc2ccc(Cl)c(OC(F)F)c2)c1 (single isomer, unassigned) [Example 649]	< 50
CCCN(CC1CC1)c1ccc(C(CC)CC(=O)O)cc1Nc1cnc(OCC)nc1 (single isomer, unassigned) [Example 657, 3-(4-((cyclopropylmethyl) (propyl)amino)-3-((2-ethoxypyrimidin-5-yl)amino)phenyl)pentanoic acid]	< 50
CCCN(CC1CC1)c1ccc(C(CC)CC(=O)O)cc1Nc1ccc2nc(C)sc2c1 (single isomer, unassigned) [Example 658, 3-(4-((cyclopropylmethyl) (propyl)amino)-3-((2-methylbenzo[d]thiazol-6-yl)amino)phenyl)pentanoic acid]	< 50
CCCN(CC1CC1)c1ccc(C(CC)CC(=O)O)cc1Nc1ccc2c(c1)OC(F)(F)O2 (single isomer, unassigned) [Example 659, 3-(4-((cyclopropylmethyl) (propyl)amino)-3-((2,2-difluorobenzo[d][1,3]dioxol-5-yl)amino)phenyl)pentanoic acid]	< 50
CCCN(CC1CC1)c1ccc(C(CC)CC(=O)O)cc1Nc1ccc2nc(C)sc2c1 (single isomer, unassigned) [Example 661, 3-(4-((cyclopropylmethyl)(propyl)amino)-3-((2-methylbenzo[d]thiazol-6-yl)amino)phenyl) pentanoic acid]	> 50
COCC(CC(=O)O)c1ccc(N(CC2CC2)C2CCOCC2)c(NC(=O)Nc2ccc(C)cc2)c1 (single isomer, unassigned) [Example 676, 3-(4-((Cyclopropylmethyl)(tetrahydro-2H-pyran-4-yl)amino)-3-(3-(p-tolyl)ureido)phenyl)-4-methoxybutanoic acid]	> 50
COCC(CC(=O)O)c1ccc(N(CC2CC2)C2CCOCC2)c(NC(=O)Nc2ccc(Cl)cc2F)c1 (single isomer, unassigned) [Example 678, 3-(3-(3-(4-Chloro-2-fluorophenyl)ureido)-4-((cyclopropylmethyl)(tetrahydro-2H-pyran-4-yl)amino)phenyl)-4-methoxybutanoic acid]	> 50
COCC(CC(=O)O)c1ccc(N(CC2CC2)C2CCOCC2)c(Nc2ccc3nc(C)sc3c2)c1 (single isomer, unassigned) [Example 680, 3-(4-((cyclopropylmethyl) (tetrahydro-2H-pyran-4-yl)amino)-3-((2-methylbenzo[d]thiazol-6-yl)amino)phenyl)-4-methoxybutanoic acid]	< 50
COCC(CC(=O)O)c1ccc(N(CC2CC2)C2CCOCC2)c(Nc2ccc(Cl)c(OCC(F)(F)F)c2)c1 (single isomer, unassigned) [Example 682, 3-(3-((4-chloro-3-(2,2,2-trifluoroethoxy)phenyl)amino)-4-((cyclopropylmethyl) (tetrahydro-2H-pyran-4-yl)amino)phenyl)-4-methoxybutanoic acid]	> 50
COCC(CC(=O)O)c1ccc(N(CC2CC2)C2CCOCC2)c(Nc2ccc(Cl)c(OCC3CC3)c2)c1 (single isomer, unassigned) [Example 683, 3-(3-((4-chloro-3-(cyclopropylmethoxy)phenyl)amino)-4-((cyclopropylmethyl) (tetrahydro-2H-pyran-4-yl)amino)phenyl)-4-methoxybutanoic acid]	> 50
COCC(CC(=O)O)c1ccc(N(CC2CC2)C2CCOCC2)c(Nc2ccc(Cl)c(OCC(F)F)c2)c1 (single isomer, unassigned) [Example 684, 3-(3-((4-chloro-3-(2,2-difluoroethoxy)phenyl)amino)-4-((cyclopropylmethyl) (tetrahydro-2H-pyran-4-yl)amino)phenyl)-4-methoxybutanoic acid]	< 50

Next, values leading:

IC50 [nM]	SMILES
< 50	CCN(c1ccc(C(C)CC(=O)O)cc1Nc1cnc(C)nc1)C1CCOCC1 (single isomer, unassigned) [Example 623, 3-(4-(ethyl(tetrahydro-2H-pyran-4-yl)amino)-3-((2-methylpyrimidin-5-yl)amino)phenyl)butanoic acid]
< 50	CCN(c1ccc(C(C)CC(=O)O)cc1Nc1cnc(OC)nc1)C1CCOCC1 (single isomer, unassigned) [Example 633, 3-(4-(ethyl(tetrahydro-2H-pyran-4-yl)amino)-3-((2-methoxypyrimidin-5-yl)amino)phenyl)butanoic acid]
< 5	CCN(c1ccc(C(C)CC(=O)O)cc1NC(=O)Nc1ccc(Cl)cc1F)C1CCOCC1 (single isomer, unassigned) [Example 637 E1, 3-(3-(3-(4-Chloro-2-fluorophenyl)ureido)-4-(ethyl(tetrahydro-2H-pyran-4-yl)amino)phenyl)butanoic acid]
< 50	CCN(c1ccc(C(C)CC(=O)O)cc1NC(=O)Nc1ccccc1F)C1CCOCC1 (single isomer, unassigned) [Example 638, 3-(4-(ethyl(tetrahydro-2H-pyran-4-yl)amino)-3-(3-(2-fluorophenyl)ureido)phenyl) butanoic acid]
< 50	CCN(c1ccc(C(C)CC(=O)O)cc1NC(=O)Nc1ccc(C)cc1)C1CCOCC1 (single isomer, unassigned) [Example 639, 3-(4-(ethyl(tetrahydro-2H-pyran-4-yl)amino)-3-(3-(p-tolyl)ureido)phenyl)butanoic acid]
< 5	CCC(CC(=O)O)c1ccc(N(CC(C)C)C2CCCCC2)c(Nc2ccc(Cl)c(OC(F)F)c2)c1 (single isomer, unassigned) [Example 642]
< 5	CCC(CC(=O)O)c1ccc(N(CC(C)C)C2CCCCC2)c(Nc2ccc(Cl)c(OCC(F)F)c2)c1 (single isomer, unassigned) [Example 643, 3-(3-((4-chloro-3-(2,2-difluoroethoxy)phenyl)amino)-4-(cyclohexyl (isobutyl)amino)phenyl) pentanoic acid]
< 5	CCCOc1ncc(Nc2cc(C(CC)CC(=O)O)ccc2N(CC(C)C)C2CCCCC2)cn1 (single isomer, unassigned) [Example 647, 3-(4-(cyclohexyl(isobutyl)amino)-3-((2-propoxypyrimidin-5-yl)amino)phenyl)pentanoic acid]
< 5	CCC(CC(=O)O)c1ccc(N(CC(C)C)C2CCCCC2)c(Nc2cnc(OC(C)C)nc2)c1 (single isomer, unassigned) [Example 648, 3-(4-(cyclohexyl(isobutyl)amino)-3-((2-isopropoxypyrimidin-5-yl)amino)phenyl)pentanoic acid]
< 5	CCCN(CC1CC1)c1ccc(C(CC)CC(=O)O)cc1Nc1ccc(Cl)cc1 (single isomer, unassigned) [Example 656 E1, 3-(3-((4-Chlorophenyl)amino)-4-((cyclopropylmethyl)(propyl)amino)phenyl)pentanoic acid]
< 5	CCCN(CC1CC1)c1ccc(C(CC)CC(=O)O)cc1Nc1cnc(OCC)nc1 (single isomer, unassigned) [Example 660, 3-(4-((cyclopropylmethyl)(propyl)amino)-3-((2-ethoxypyrimidin-5-yl)amino)phenyl)pentanoic acid]
< 5	CCCN(CC1CC1)c1ccc(C(CC)CC(=O)O)cc1Nc1ccc2c(c1)OC(F)(F)O2 (single isomer, unassigned) [Example 662, 3-(4-((cyclopropylmethyl)(propyl)amino)-3-((2,2-difluorobenzo[d] [1,3]dioxol-5-yl)amino)phenyl) pentanoic acid]
< 5	CCC(CC(=O)O)c1ccc(N2C[C@@H]3C[C@H]2CN3Cc2ccccc2)c(Nc2ccc(C)cc2)c1 (single isomer, unassigned) [Example 666 E1]
< 5	COCC(CC(=O)O)c1ccc(N(CC2CC2)C2CCOCC2)c(Nc2ccc(Cl)cc2)c1 (single isomer, unassigned) [Example 679, 3-(3-((4-Chlorophenyl)amino)-4-((cyclopropylmethyl)(tetrahydro-2H-pyran-4-yl)amino)phenyl)-4-methoxybutanoic acid]
< 5	COCC(CC(=O)O)c1ccc(N(CC2CC2)C2CCOCC2)c(Nc2ccc(C#N)c(C)c2)c1 (single isomer, unassigned) [Example 686, 3-(3-((4-cyano-3-methylphenyl)amino)-4-((cyclopropylmethyl) (tetrahydro-2H-pyran-4-yl)amino)phenyl)-4-methoxybutanoic acid]
